Measured values: the NIST ThermoML archive (doi:10.1016/j.jct.2007.08.004)
Several values for one entry are separate records, joined by “and”; a condition that tells them apart may be missing. Identical values can stand only once.

Tests used:
[1] = Molar enthalpy of transition or fusion; conditions: DSC
[2] = for vapor or sublimation pressure: Calculated from knudsen effusion weight loss; for Triple point temperature: DTA
[3] = molar heat capacity at constant pressure; conditions: 101.33 kPa, Small sample (50 mg) DSC

O=C1NCCN1 [2-imidazolidinone]
Conditions | Molar enthalpy of transition or fusion, [1] [kcal/mol] | Triple point temperature, [2] [K]
Crystal 1 | 3.15 | 404.8
Crystal 2 | 0.908 | 346.6

Conditions | molar heat capacity at constant pressure [J/K/mol] | vapor or sublimation pressure
[2], 327.2 K, Crystal 2 | – | 0.0001064 kPa and 0.0001074 kPa and 0.0001035 kPa
[2], 329.21 K, Crystal 2 | – | 0.0001364 kPa and 0.0001328 kPa and 0.0001305 kPa
[2], 331.14 K, Crystal 2 | – | 0.0001664 kPa and 0.0001631 kPa and 0.0001658 kPa
[2], 333.19 K, Crystal 2 | – | 0.0002142 kPa and 0.0002049 kPa and 0.0002095 kPa
[2], 335.21 K, Crystal 2 | – | 0.0002681 kPa and 0.0002592 kPa and 0.0002535 kPa
[2], 337.15 K, Crystal 2 | – | 0.0003214 kPa and 0.000301 kPa and 0.00032 kPa
[2], 339.2 K, Crystal 2 | – | 0.0003984 kPa and 0.0003883 kPa
[2], 341.21 K, Crystal 2 | – | 0.000457 kPa and 0.0004831 kPa and 0.0004721 kPa
[2], 343.14 K, Crystal 2 | – | 0.0005644 kPa and 0.0005525 kPa and 0.0005387 kPa
[2], 345.19 K, Crystal 2 | – | 0.0006621 kPa and 0.0006672 kPa and 0.0006399 kPa
[2], 347.2 K, Crystal 1 | – | 0.0007833 kPa and 0.0008114 kPa and 0.0007693 kPa
[2], 349.16 K, Crystal 1 | – | 0.0009806 kPa and 0.0009769 kPa and 0.0009472 kPa
[3], 268.15 K, Crystal 2 | 99.4 | –
[3], 270.15 K, Crystal 2 | 100 | –
[3], 275.15 K, Crystal 2 | 101.5 | –
[3], 280.15 K, Crystal 2 | 102.7 | –
[3], 285.15 K, Crystal 2 | 103.9 | –
[3], 290.15 K, Crystal 2 | 105.1 | –
[3], 295.15 K, Crystal 2 | 106.3 | –
[3], 298.15 K, Crystal 2 | 107.7 | –
[3], 300.15 K, Crystal 2 | 108.5 | –
[3], 305.15 K, Crystal 2 | 110.2 | –
[3], 310.15 K, Crystal 2 | 111.9 | –
[3], 315.15 K, Crystal 2 | 113.2 | –
[3], 320.15 K, Crystal 2 | 115.4 | –
[3], 325.15 K, Crystal 2 | 117.3 | –
[3], 330.15 K, Crystal 2 | 119 | –
[3], 335.15 K, Crystal 2 | 120.9 | –
[3], 338.15 K, Crystal 2 | 122.1 | –

O=C1NCCCN1 [tetrahydropyrimidin-2(1H)-one]
Crystal
Conditions | molar heat capacity at constant pressure [J/K/mol] | vapor or sublimation pressure
[2], 363.19 K | – | 0.0001292 kPa and 0.0001261 kPa and 0.0001216 kPa
[2], 365.18 K | – | 0.0001581 kPa and 0.0001562 kPa and 0.0001488 kPa
[2], 367.14 K | – | 0.0001903 kPa and 0.0001913 kPa and 0.0001858 kPa
[2], 369.19 K | – | 0.0002232 kPa and 0.0002283 kPa
[2], 371.17 K | – | 0.000271 kPa and 0.0002737 kPa and 0.0002643 kPa
[2], 373.15 K | – | 0.0003343 kPa and 0.0003328 kPa
[2], 375.18 K | – | 0.0003988 kPa and 0.000402 kPa
[2], 377.18 K | – | 0.0004813 kPa and 0.0004804 kPa and 0.0004655 kPa
[2], 379.16 K | – | 0.0005717 kPa and 0.0005887 kPa and 0.0005753 kPa
[2], 381.18 K | – | 0.000719 kPa and 0.000702 kPa and 0.000673 kPa
[2], 383.18 K | – | 0.0008587 kPa and 0.0008463 kPa
[2], 385.16 K | – | 0.001027 kPa and 0.0009846 kPa
[3], 268.15 K | 117.2 | –
[3], 270.15 K | 118 | –
[3], 275.15 K | 120.1 | –
[3], 280.15 K | 122.2 | –
[3], 285.15 K | 124.1 | –
[3], 290.15 K | 126.2 | –
[3], 295.15 K | 128.1 | –
[3], 298.15 K | 129.5 | –
[3], 300.15 K | 130.4 | –
[3], 305.15 K | 132.7 | –
[3], 310.15 K | 135.3 | –
[3], 315.15 K | 137.8 | –
[3], 320.15 K | 140.2 | –
[3], 325.15 K | 142.6 | –
[3], 330.15 K | 145.1 | –
[3], 335.15 K | 147.3 | –
[3], 340.15 K | 150.1 | –
[3], 345.15 K | 152.2 | –
[3], 350.15 K | 155.1 | –
[3], 355.15 K | 157.2 | –
[3], 360.15 K | 159.9 | –
[3], 365.15 K | 163.8 | –
[3], 370.15 K | 166.5 | –
[3], 375.15 K | 169.8 | –
[3], 380.15 K | 172.4 | –
[3], 385.15 K | 175.1 | –
[3], 390.15 K | 177.3 | –
[3], 395.15 K | 180.4 | –
[3], 400.15 K | 183.3 | –
[3], 405.15 K | 186.5 | –
[3], 410.15 K | 189.8 | –
[3], 415.15 K | 193.9 | –
[3], 420.15 K | 197.1 | –
[3], 425.15 K | 200.8 | –
[3], 430.15 K | 202.7 | –
[3], 435.15 K | 204.9 | –
[3], 440.15 K | 207.5 | –
[3], 445.15 K | 210.3 | –
[3], 450.15 K | 213.3 | –
[3], 455.15 K | 215.9 | –
[3], 460.15 K | 219.1 | –
[3], 465.15 K | 222.2 | –
[3], 470.15 K | 224.9 | –
